# Assays:
# [1] = target: Epidermal growth factor receptor (Homo sapiens, UniProt P00533); test: Inhibition of […]-induced EGFR phosphorylation in human A549 cells pretreated for 2 hrs followed by EGF stimulation by immune assay; assay type: cell-based
# [2] = Inhibition of mouse EGFR V769_D770insASV mutant stably expressed in mouse BaF3 cells assessed as cell viability incubated for 3 days by Cell Titer-Glo assay; assay type: cell-based; conditions: BaF3, 72 h
# [3] = Inhibition of mouse EGFR D770_N771insNPG mutant stably expressed in mouse BaF3 cells assessed as cell viability incubated for 3 days by Cell Titer-Glo assay; assay type: cell-based; conditions: BaF3, 72 h
# [4] = Cmax in CD-1 rat at 10 mg/kg, po by LC/MS/MS analysis; assay type: ADME, organism-based; design: dose 10 mg/kg, route po; conditions: in vivo
# [5] = AUClast in CD-1 mouse at 10 mg/kg, po by LC/MS/MS analysis; assay type: ADME, organism-based; design: dose 10 mg/kg, route po; conditions: in vivo
# [6] = Cmax in CD-1 mouse at 10 mg/kg, po by LC/MS/MS analysis; assay type: ADME, organism-based; design: dose 10 mg/kg, route po; conditions: in vivo
# BaF3 [7] = test: In vivo antitumor activity against mouse BaF3 cells expressing EGFR exon 20 insertion (ex20ins) ASV implanted in SCID mouse assessed as tumor growth inhibition at 50 mg/kg, po administered for 7 consecutive days; assay type: functional; conditions: 168 h, time 7 day, read-out: TGI
# [8] = AUClast in CD-1 rat at 10 mg/kg, po by LC/MS/MS analysis; assay type: ADME, organism-based; design: dose 10 mg/kg, route po; conditions: in vivo
# BaF3 [9] = test: In vivo antitumor activity against mouse BaF3 cells expressing EGFR exon 20 insertion (ex20ins) ASV implanted in SCID mouse assessed as tumor regression at 100 mg/kg, po administered for 7 consecutive days; assay type: functional; conditions: time 7 day
# BaF3 [10] = test: In vivo antitumor activity against mouse BaF3 cells expressing EGFR exon 20 insertion (ex20ins) ASV implanted in SCID mouse assessed as tumor growth inhibition at 100 mg/kg, po administered for 7 consecutive days; assay type: functional; conditions: BaF3, 168 h, time 7 day, read-out: TGI
# [11] = Inhibition of mouse EGFR delE746_A750 mutant stably expressed in mouse BaF3 cells assessed as cell viability incubated for 3 days by Cell Titer-Glo assay; assay type: cell-based; conditions: BaF3, 72 h
# [12] = Inhibition of mouse EGFR Del-T790M double mutant stably expressed in mouse BaF3 cells assessed as cell viability incubated for 3 days by Cell Titer-Glo assay; assay type: cell-based; conditions: BaF3, 72 h
# Sequence of Epidermal growth factor receptor (P00533 whole entry): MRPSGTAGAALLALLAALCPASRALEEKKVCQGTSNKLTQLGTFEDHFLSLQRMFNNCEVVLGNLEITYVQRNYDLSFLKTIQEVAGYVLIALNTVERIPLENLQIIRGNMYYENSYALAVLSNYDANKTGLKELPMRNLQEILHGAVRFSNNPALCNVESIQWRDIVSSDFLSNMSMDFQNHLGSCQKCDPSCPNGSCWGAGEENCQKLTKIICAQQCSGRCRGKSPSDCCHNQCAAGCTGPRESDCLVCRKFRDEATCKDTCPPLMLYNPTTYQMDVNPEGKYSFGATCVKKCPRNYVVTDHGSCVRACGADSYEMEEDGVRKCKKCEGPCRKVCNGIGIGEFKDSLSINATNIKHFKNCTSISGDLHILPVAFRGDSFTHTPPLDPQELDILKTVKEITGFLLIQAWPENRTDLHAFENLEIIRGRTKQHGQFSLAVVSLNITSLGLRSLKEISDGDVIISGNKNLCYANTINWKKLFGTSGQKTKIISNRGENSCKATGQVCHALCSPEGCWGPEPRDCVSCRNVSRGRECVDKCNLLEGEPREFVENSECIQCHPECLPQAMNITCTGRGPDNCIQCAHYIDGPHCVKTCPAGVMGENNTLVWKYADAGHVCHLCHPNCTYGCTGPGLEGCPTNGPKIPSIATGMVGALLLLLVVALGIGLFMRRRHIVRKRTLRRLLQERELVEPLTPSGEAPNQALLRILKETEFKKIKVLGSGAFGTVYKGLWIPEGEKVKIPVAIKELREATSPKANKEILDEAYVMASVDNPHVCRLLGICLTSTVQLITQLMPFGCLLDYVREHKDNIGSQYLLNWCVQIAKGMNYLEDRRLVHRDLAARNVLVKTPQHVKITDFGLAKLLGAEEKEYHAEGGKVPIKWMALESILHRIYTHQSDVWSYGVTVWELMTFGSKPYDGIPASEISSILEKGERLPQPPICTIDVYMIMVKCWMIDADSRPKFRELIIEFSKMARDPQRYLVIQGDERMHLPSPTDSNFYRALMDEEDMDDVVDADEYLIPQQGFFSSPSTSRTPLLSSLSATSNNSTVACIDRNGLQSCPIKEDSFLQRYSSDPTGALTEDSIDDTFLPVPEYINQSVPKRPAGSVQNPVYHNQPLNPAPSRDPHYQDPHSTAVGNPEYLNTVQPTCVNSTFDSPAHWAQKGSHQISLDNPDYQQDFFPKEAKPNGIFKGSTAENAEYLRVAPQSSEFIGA
SMILES,IC50 [1] [nM],Cmax [4] [ng/mL],AUC(0-t) [5] [ng·h/mL],Cmax [6] [ng/mL],AUC(0-t) [8] [ng·h/mL],IC50 [2] [nM],IC50 [3] [nM],inhibition in vivo at 50 mg/kg (BaF3 [7]) [%],Activity (BaF3 [9]) [%],inhibition in vivo at 100 mg/kg (BaF3 [10]) [%],IC50 [11] [nM],IC50 [12] [nM]
C=CC(=O)Nc1cc(Nc2ncc(C(=O)OC(C)C)c(-c3cn(C)c4ccccc34)n2)c(OC)cc1N(C)C[C@H]1CCCN1C,43,40,294,94,323,12,6,72,-10,–,–,–
C=CC(=O)Nc1cc(Nc2ncc(C(=O)OC(C)C)c(-c3cn(C)c4ccccc34)n2)c(OC)cc1N(C)C[C@@H]1CCCN1C,57,107,643,145,1390,14,8,82,-51,–,–,–
C=CC(=O)Nc1cc(Nc2ncc(-c3cnn(C(C)C)c3)c(-c3cn4c5c(cccc35)CCC4)n2)c(OC)cc1N(C)CCN(C)C,15,163,353,46,2020,16,13,–,–,–,–,–
C=CC(=O)Nc1cc(Nc2nccc(-c3cn(C)c4ccccc34)n2)c(OC)cc1N(C)CCN(C)C [OSIMERTINIB],–,98,–,175,–,158,53,–,–,–,6,7
C=CC(=O)Nc1cc(Nc2ncc(C(=O)NC)c(-c3cn4c5c(cccc35)CCC4)n2)c(OC)cc1N(C)CCN(C)C,147,–,–,–,–,136,37.6,–,–,–,–,–
C=CC(=O)Nc1cc(Nc2nccc(-c3c4n(c5ccccc35)CCOC4)n2)c(OC)cc1N(C)CCN(C)C,288,248,655,183,2670,112,53,–,–,–,–,–
C=CC(=O)Nc1cccc(Nc2nc(Nc3ccc(N4CCN(C(C)=O)CC4)cc3OC)ncc2C(F)(F)F)c1 [ROCILETINIB],–,–,–,–,–,883,179,–,–,–,25,9

# The next lines start with results.
IC50 [1] [nM],Cmax [4] [ng/mL],AUC(0-t) [5] [ng·h/mL],Cmax [6] [ng/mL],AUC(0-t) [8] [ng·h/mL],SMILES,IC50 [2] [nM],IC50 [3] [nM],inhibition in vivo at 50 mg/kg (BaF3 [7]) [%],Activity (BaF3 [9]) [%],inhibition in vivo at 100 mg/kg (BaF3 [10]) [%],IC50 [11] [nM],IC50 [12] [nM]
95,–,–,–,–,C=CC(=O)Nc1cc(Nc2ncc(Cl)c(-c3cnn4ccccc34)n2)c(OC)cc1N(C)CCN(C)C,59,32,–,–,–,–,–
71,–,–,–,–,C=CC(=O)Nc1cc(Nc2ncc(Cl)c(-c3cn4c5c(cccc35)CCC4)n2)c(OC)cc1N(C)CCN(C)C,58,22,–,–,–,–,–
35,13,200,29,58,C=CC(=O)Nc1cc(Nc2ncc(C#N)c(-c3cn4c5c(cccc35)CCC4)n2)c(OC)cc1N(C)CCN(C)C,9.38,3.99,–,–,76,–,–
49,–,96,31,–,C=CC(=O)Nc1cc(Nc2ncc(-c3nc(C)no3)c(-c3cn4c5c(cccc35)CCC4)n2)c(OC)cc1N(C)CCN(C)C,38,11,–,–,–,–,–
2970,–,–,–,–,C=CC(=O)Nc1cc(Nc2ncc(Cl)c(-c3c4n(c5ccccc35)CCOC4)n2)c(OC)cc1N(C)CCN(C)C,1020,754,–,–,–,–,–
40,170,56,20,1920,C=CC(=O)Nc1cc(Nc2ncc(C(=O)OC)c(-c3cn4c5c(cccc35)CCC4)n2)c(OC)cc1N(C)CCN(C)C,22.1,6.57,–,–,–,–,–
23,–,–,–,–,C=CC(=O)Nc1cc(Nc2ncc(C(=O)CC)c(-c3cn4c5c(cccc35)CCC4)n2)c(OC)cc1N(C)CCN(C)C,17.3,4.95,–,–,–,–,–
24,149,631,72,1920,C=CC(=O)Nc1cc(Nc2ncc(C(=O)OC(C)C)c(-c3cn(CC)c4ccccc34)n2)c(OC)cc1N(C)CCN(C)C,7,5,–,–,–,–,–
42,–,–,–,–,C#Cc1cnc(Nc2cc(NC(=O)C=C)c(N(C)CCN(C)C)cc2OC)nc1-c1cn2c3c(cccc13)CCC2,25,9.8,–,–,–,–,–

# From ChEMBL document CHEMBL5236603, “Discovery of mobocertinib, a potent, oral inhibitor of EGFR exon 20 insertion mutations in non-small cell lung cancer” (Bioorg Med Chem Lett, 2023)
